Laboratory results reported in patent US20240315992A1, “AMINOXY ACID-BASED ANTIBACTERIAL COMPOUNDS AND METHODS THEREOF” (The University of Hong Kong, priority 2023, published 2024).
≈ marks a conversion by molar mass, not a printed value.

Experiments:
[1] = system: multidrug resistant Staphylococcus aureus Mu3; assay: MIC by CLSI broth micro-dilution, MRSA Mu3; assay type: cell-based; settings: MRSA, CLSI broth micro-dilution, CAMH, read-out: Minimum inhibitory concentration (μM) in MRSA Mu3
Experimental: Aminoxy acids were synthesized by the standard peptide coupling procedures. Minimum inhibitory concentration was determined using CLSI broth micro-dilution method in 96-wells microtitre plates. Minimum inhibitory concentration is defined as the lowest concentration of the compound that inhibits visible growth of the bacteria. All experiments were performed three times. 24 compounds including aminoxy acid monomers and dipeptides have been identified to show toxicity against multidrug resistant Staphylococcus aureus Mu3 and summarized in Table 1. The minimum inhibitory concentration of compound 8 and compound 35 on other gram-positive bacteria was also evaluated and summarized in Table 2. […] As shown in FIGS. 3A-3B there are no observable hemolysis for compound 8 and compound 35 towards human red blood cell.
Bacteria were streaked from the glycerol stock into BHI agar and were incubated overnight. Single colony was picked for the overnight culture in cation-adjusted Mueller Hinton broth (CAMH), LB or BHI. The overnight culture was sub-cultured and regrew to exponential phase for the experiment.
MIC was determined by CLSI broth micro-dilution method in 96-wells microtitre plates. For compounds dissolved in water, 100 μL of 2× testing concentration was added to the first well of each column, followed by two-fold serial dilution for successive wells with 50 μL medium. For chemical compounds dissolved in DMSO, the compounds were two-fold serial diluted by DMSO in a DMSO-compatible 96-well plate. 1 μL of compound in DMSO was transferred into 96-wells microtitre plate containing 50 μL medium to give 2× testing concentration. An overnight culture of bacteria was grown into exponential phase. The bacteria culture was diluted to 1×10^6 CFU/mL and 50 μL of diluted culture were added into each well. The test plates were kept in a 37° C. incubator overnight. Optical density was recorded by DTX 880 multimode detector (Beckman Coulter, California, US). MIC is defined as the lowest concentration of the compound that inhibits visible growth of bacteria. Biological replicates were performed. CAMH was used for bacteria culture and MIC test except S. pneumoniae, L. monocytogenes, E. faecalis and M. smegmatis for which BHI was used as culture medium

[2] = system: Staphylococcus aureus strain USA300-LAC; assay: Non-lethal bacteremia model, bacteria loads in organs; assay type: in vivo, Balb/c mice; settings: 10 mg/kg/day intraperitoneal, 4 days
Experimental: FIG. 9 are the bar graphs showing compound 8 and compound 35 reduce bacteria loads in different organs of the mice infected by Staphylococcus aureus. Grubb's test was performed to test for outliers. Statistical analysis was performed with two-sided paired t test. (*p<0.05).
Staphylococcus aureus strain USA300-LAC were cultured to the early exponential phase of growth, washed twice with sterile phosphate-buffered saline solution (PBS), and resuspended in PBS at 5×10^6 CFU/200 μL for non-lethal bacteremia model. The female Balb/c mice, 6-8 weeks, were infected intravenously (i.v.) through the tail vein with Staphylococcus aureus and randomized into three groups (N=14 for vehicle; N=12 for compound 8 and compound 35 respectively). One hour after infection, mice received intraperitoneal injections of compound 8 or compound 35 (10 mg/kg/day) or an injection of buffer (PBS with 2.5% DMSO and 2% Tween-80) as the control. The compound and injection buffer treatments were performed twice per day at 12-h intervals. The challenged mice were monitored for 4 days, at which point all the remaining mice were sacrificed. The CFU of S. aureus were determined in heart, liver, kidney and lung by plating in series dilution. Grubb's test was performed to test for outliers. Statistical analysis was performed with two-sided paired t test. (*p<0.05).

| MIC [1] [µM] | SMILES | bacteria load in heart [2] | bacteria load in liver [2] | bacteria load in lung [2] |
| --- | --- | --- | --- | --- |
| > 12.5 | CC(C)C[C@H](ONC(=O)[C@@H](COCc1ccccc1)ONS(=O)(=O)c1cc(C(F)(F)F)cc(C(F)(F)F)c1)C(=O)Nc1ccc2c(c1)OC(F)(F)O2 [Compound 55] |  |  |  |
| 6.25 (≈ 4 µg/mL) | CC(C)C[C@H](NC(=O)[C@@H](COCc1ccccc1)ONC(=O)c1cc(C(F)(F)F)cc(C(F)(F)F)c1)C(=O)Nc1ccccc1 [Compound 56] |  |  |  |

The next lines start with the molecule.

| SMILES | MIC [1] [µM] | bacteria load in heart [2] | bacteria load in liver [2] | bacteria load in lung [2] |
| --- | --- | --- | --- | --- |
| CC(C)C[C@H](ONC(=O)[C@@H](COCc1ccccc1)ONC(=O)c1cc(C(F)(F)F)cc(C(F)(F)F)c1)C(=O)NCc1ccccc1 [Compound 30] | > 12.5 | can reduce the bacteria load | can reduce the bacteria load | can reduce the bacteria load |
| NCCCC[C@@H](ONC(=O)[C@@H](COCc1ccccc1)ONC(=O)c1cc(C(F)(F)F)cc(C(F)(F)F)c1)C(=O)Nc1ccccc1 [Compound 20] | > 12.5 |  |  |  |
| CC(C)C[C@H](ONC(=O)[C@@H](COCc1ccccc1)ONC(=O)c1cc(C(F)(F)F)cc(C(F)(F)F)c1)C(=O)NC1CC1 [Compound 28] | > 12.5 |  |  |  |
